Assay [1] deals with T1, Alpha-1A adrenergic receptor (Homo sapiens, UniProt P35348).
T1 sequence (P35348 whole entry): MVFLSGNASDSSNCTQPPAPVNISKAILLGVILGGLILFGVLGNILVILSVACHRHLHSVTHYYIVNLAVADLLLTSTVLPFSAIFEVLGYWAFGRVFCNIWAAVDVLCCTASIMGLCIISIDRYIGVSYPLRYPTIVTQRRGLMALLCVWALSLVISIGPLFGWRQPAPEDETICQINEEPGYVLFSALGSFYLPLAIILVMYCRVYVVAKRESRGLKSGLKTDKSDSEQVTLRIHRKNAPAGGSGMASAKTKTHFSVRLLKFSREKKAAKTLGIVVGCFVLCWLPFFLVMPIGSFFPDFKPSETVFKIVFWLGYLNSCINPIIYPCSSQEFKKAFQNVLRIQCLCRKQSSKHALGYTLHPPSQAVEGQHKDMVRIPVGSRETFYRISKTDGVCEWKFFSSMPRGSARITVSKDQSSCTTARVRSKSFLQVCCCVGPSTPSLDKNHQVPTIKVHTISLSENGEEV
The assay is described as follows: biochemical.
Description: Inhibition of [3H]prazosin binding to human Alpha-1A adrenergic receptor expressed in CHO cells

Assay [2] addresses T2, Alpha-1D adrenergic receptor (Homo sapiens, UniProt P25100).
T2 sequence (P25100 whole entry): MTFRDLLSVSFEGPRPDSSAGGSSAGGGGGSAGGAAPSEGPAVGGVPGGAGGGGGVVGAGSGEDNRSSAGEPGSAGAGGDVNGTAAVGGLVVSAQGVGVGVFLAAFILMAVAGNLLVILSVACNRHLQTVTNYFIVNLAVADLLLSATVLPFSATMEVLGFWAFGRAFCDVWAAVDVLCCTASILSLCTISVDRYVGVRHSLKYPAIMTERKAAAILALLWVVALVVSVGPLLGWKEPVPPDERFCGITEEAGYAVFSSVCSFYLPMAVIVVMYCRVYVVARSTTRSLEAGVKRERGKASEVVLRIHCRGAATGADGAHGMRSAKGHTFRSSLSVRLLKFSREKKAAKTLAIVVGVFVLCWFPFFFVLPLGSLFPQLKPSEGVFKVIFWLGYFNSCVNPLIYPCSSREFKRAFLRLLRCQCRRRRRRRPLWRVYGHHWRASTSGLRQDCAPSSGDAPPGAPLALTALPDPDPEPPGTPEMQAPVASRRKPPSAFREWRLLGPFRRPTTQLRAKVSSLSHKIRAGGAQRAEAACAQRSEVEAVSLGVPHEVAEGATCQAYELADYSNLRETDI
The assay is described as follows: biochemical.
Description: Inhibition of [3H]prazosin binding to human Alpha-1D adrenergic receptor expressed in CHO cells

The species named for assay [3] is Cavia porcellus. Description: Ability to block B-HT 920-induced inhibition of inotropic response to field stimulation in superfused guinea pig atrium. In kind it is functional. Particulars: Cardiac atrium.
Assay [4] deals with T3, Alpha-1B adrenergic receptor (Homo sapiens, UniProt P35368).
T3 sequence (P35368 whole entry): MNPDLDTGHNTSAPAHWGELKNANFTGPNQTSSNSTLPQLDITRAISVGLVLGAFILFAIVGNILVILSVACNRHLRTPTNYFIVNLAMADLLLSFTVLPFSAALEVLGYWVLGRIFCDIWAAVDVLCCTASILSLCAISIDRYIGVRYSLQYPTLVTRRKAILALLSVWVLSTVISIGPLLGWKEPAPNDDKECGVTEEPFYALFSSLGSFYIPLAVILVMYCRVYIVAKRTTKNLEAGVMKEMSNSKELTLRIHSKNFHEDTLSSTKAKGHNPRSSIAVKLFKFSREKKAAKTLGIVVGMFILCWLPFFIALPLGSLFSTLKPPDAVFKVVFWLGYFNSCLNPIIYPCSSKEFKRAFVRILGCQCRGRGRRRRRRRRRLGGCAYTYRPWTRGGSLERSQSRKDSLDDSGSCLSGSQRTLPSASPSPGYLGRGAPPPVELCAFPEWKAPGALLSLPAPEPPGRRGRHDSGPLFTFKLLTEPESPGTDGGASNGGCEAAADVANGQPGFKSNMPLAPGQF
Description: biochemical.
Description: Inhibition of [3H]prazosin binding to human Alpha-1B adrenergic receptor expressed in CHO cells

For assay [5], the species on record is Oryctolagus cuniculus. The assay is described as follows: Ability to block norepinephrine-induced contraction in rabbit aorta. In kind it is functional.
The species entered for assay [6] is Canis familiaris. The assay is described as follows: Ability to block B-HT 920-induced contraction in canine saphenous vein. In kind it is functional. The following applies: Canis lupus familiaris.
Assay [7] addresses T4, Alpha-2C adrenergic receptor (Homo sapiens, UniProt P18825).
T4 sequence (P18825 whole entry): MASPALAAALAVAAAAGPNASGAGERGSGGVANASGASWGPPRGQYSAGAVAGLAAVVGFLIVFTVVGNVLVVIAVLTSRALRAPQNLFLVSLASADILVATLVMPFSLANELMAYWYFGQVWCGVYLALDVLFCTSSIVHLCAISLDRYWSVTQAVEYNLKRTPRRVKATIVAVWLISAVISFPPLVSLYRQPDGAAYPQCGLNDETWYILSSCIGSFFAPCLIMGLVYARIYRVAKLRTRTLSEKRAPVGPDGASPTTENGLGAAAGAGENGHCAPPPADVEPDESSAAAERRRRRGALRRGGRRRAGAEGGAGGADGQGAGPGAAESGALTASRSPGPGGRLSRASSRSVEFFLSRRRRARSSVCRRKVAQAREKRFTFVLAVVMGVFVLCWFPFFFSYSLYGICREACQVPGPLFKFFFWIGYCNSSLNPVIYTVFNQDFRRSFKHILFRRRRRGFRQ
Description: biochemical.

The target in assay [8] is T5, Alpha-2B adrenergic receptor (Homo sapiens, UniProt P18089).
T5 sequence (P18089 whole entry): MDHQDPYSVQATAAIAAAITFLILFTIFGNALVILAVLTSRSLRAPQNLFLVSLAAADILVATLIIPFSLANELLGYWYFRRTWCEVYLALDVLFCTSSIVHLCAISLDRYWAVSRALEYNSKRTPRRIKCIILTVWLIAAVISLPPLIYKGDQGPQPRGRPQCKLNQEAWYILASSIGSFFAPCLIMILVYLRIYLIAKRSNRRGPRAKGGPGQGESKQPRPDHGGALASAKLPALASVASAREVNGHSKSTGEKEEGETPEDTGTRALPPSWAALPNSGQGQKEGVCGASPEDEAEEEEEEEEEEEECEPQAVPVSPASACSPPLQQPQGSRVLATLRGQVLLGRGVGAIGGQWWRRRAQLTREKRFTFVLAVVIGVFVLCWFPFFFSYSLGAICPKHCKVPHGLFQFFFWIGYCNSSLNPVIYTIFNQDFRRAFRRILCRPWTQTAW
The assay is described as follows: biochemical. In kind it is cell-based, CHO.

Assay [9] has as its target T6, Alpha-2A adrenergic receptor (Homo sapiens, UniProt P08913).
T6 sequence (P08913 whole entry): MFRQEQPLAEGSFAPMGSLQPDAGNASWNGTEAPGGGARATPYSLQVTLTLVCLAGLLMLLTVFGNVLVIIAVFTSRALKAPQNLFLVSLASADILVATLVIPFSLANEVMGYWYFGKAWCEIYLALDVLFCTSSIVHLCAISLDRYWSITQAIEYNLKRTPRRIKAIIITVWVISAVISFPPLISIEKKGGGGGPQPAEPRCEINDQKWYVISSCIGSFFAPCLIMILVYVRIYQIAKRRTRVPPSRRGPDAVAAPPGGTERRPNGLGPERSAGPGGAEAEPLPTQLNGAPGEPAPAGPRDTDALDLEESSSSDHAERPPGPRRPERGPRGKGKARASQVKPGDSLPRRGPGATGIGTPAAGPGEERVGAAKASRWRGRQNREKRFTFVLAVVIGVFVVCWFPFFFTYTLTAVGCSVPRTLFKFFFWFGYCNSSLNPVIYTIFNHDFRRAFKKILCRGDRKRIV
The assay is described as follows: biochemical.

Assay [10] deals with Voltage-dependent L-type calcium channel subunit alpha-1C (Rattus norvegicus, UniProt P22002). The assay is described as follows: biochemical.
Description: Inhibition of [3H]nitrendipine binding to membrane homogenates of rat cardiac muscle.
The target of assay [11] is Beta-1 adrenergic receptor (Cavia porcellus, UniProt B0FL73). Description: Effective dose required to stimulate contractions in isolated guinea pig atrium. In kind it is functional, tissue-based, Cardiac atrium.
In assay [12] the target is Beta-2 adrenergic receptor (Cavia porcellus, UniProt Q8K4Z4). Description: Effective dose for relaxation of guinea pig trachea.
Beta-2 adrenergic receptor, sequence (Q8K4Z4 whole entry): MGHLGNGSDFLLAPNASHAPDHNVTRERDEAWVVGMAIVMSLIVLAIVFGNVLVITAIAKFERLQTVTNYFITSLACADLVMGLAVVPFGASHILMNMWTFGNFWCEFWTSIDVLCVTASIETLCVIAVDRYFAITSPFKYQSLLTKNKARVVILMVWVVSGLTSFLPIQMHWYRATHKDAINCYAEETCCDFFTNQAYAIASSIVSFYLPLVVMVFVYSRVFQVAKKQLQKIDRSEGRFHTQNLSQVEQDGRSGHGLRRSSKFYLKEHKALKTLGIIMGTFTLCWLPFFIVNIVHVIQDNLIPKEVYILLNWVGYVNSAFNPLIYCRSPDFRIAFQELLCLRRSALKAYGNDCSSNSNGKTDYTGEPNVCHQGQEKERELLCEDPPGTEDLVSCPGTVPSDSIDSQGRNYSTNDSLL

Voltage-dependent L-type calcium channel subunit alpha-1C, sequence (P22002 whole entry): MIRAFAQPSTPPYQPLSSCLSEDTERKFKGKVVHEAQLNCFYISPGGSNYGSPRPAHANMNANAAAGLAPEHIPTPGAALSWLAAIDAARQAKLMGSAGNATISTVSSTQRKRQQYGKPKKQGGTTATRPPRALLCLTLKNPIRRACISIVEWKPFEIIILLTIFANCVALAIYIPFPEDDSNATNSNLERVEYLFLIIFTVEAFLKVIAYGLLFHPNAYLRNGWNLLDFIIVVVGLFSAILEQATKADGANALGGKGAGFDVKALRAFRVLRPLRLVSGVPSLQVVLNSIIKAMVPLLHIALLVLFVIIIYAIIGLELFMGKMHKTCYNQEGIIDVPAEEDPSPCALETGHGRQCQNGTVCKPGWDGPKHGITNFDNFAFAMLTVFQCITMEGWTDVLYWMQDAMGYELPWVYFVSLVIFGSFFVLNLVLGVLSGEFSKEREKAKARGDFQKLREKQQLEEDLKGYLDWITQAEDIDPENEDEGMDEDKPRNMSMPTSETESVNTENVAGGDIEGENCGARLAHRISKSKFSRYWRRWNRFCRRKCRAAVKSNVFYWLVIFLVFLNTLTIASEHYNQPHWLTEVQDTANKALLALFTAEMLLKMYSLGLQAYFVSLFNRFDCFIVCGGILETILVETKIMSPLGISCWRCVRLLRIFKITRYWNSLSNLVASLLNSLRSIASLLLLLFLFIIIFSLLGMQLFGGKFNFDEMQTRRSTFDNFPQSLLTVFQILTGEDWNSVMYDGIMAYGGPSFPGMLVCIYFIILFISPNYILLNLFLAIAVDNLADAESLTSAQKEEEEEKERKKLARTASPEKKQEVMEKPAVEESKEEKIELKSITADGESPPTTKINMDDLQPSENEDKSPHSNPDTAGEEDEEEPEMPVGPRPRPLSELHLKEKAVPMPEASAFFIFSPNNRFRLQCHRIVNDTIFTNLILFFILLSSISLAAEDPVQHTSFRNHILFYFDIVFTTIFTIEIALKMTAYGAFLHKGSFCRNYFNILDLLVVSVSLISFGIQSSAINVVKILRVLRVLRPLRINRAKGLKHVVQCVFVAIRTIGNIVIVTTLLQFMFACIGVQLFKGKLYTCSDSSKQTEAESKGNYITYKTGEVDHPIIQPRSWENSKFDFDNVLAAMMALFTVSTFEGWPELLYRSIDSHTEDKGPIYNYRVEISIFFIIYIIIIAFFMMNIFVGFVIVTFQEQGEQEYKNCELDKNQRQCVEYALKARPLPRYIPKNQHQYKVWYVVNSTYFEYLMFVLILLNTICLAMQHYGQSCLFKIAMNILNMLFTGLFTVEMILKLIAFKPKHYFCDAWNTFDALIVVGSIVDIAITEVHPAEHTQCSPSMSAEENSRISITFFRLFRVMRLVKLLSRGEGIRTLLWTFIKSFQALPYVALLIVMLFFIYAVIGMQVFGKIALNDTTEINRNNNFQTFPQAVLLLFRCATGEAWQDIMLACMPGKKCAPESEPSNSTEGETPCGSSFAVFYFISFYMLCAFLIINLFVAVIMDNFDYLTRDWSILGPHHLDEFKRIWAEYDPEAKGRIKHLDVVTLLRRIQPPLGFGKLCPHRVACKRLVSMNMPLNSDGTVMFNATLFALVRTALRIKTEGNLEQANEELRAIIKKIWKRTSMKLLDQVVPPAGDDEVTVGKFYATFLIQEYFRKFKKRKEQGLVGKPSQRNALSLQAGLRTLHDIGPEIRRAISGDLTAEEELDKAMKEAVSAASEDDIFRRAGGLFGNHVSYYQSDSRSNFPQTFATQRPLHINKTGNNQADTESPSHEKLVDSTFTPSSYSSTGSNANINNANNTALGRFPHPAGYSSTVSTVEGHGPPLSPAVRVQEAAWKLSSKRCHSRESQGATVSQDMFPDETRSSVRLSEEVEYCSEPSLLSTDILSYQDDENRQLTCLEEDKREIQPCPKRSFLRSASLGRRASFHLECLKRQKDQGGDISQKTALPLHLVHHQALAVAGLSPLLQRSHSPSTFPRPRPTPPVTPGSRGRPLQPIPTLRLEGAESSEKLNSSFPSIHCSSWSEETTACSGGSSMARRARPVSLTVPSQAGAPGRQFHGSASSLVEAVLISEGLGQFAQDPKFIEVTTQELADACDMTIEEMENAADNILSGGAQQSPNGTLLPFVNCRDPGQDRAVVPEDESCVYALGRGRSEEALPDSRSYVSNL
Beta-1 adrenergic receptor, sequence (B0FL73 whole entry): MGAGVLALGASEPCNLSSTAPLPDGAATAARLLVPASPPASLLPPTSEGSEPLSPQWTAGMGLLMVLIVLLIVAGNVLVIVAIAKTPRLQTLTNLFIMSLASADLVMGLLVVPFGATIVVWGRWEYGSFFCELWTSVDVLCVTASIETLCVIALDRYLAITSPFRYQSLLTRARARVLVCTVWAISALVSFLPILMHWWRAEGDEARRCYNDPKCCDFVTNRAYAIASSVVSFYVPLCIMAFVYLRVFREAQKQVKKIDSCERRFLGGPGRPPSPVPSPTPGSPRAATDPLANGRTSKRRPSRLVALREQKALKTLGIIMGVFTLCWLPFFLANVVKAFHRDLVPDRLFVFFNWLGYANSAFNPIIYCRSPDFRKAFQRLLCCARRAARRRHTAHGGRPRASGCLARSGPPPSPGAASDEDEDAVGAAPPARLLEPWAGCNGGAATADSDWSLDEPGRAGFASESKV

For `CC(C)=CCOc1ccc(Cl)c2c1CCN(C)CC2`, the Ki – broadly, the dissociation constant of the complex between target and ligand, obtained from inhibition or displacement – worked out at 33 nM in assay [1], 33 nM in assay [2] and 87 nM in [4]. In addition, the Kb in assay [3] is more than 3000 nM; in [5] it was 150 nM; in assay [6], 76 nM.
With `CN1CCc2c(Cl)ccc3oc(Br)c(c23)C1`, the inhibitory constant (Ki) was found to be 28 nM in [7]; 3300 nM in assay [1]; 72 nM in [2]; 14 nM in [8]; 783 nM in assay [4]; 54 nM in [9]. Also, the figures for the Kb in [3], in assay [5] and in assay [6] were more than 3000 nM, more than 1000 nM and 40 nM, respectively.
Take `CN1CCc2cccc(Cl)c2CC1`: the Ki is 449 nM in assay [1]; 126 nM in assay [2]; 16 nM in [8]; 485 nM in assay [4]; 9.4 nM in assay [9]. In addition, the Kb in [3] turned out to be 17 nM; in assay [5], 600 nM; in [6], 42 nM.
Regarding `CCc1sc2ccc(Cl)c3c2c1CN(C)CC3`, the inhibition constant Ki in [7] came to 35 nM; in assay [1] it was 58 nM; in assay [2] it was 1.2 nM; in [8] it was 15 nM; in assay [4], 15 nM; in assay [9] it was 31 nM. The results for the Kb in assay [3], in [5] and in assay [6] were more than 3000 nM, 56 nM and 84 nM, respectively.
As for `C=Cc1sc2ccc(Cl)c3c2c1CN(C)CC3`, the Ki was 21 nM in assay [7]; 36 nM in [1]; 1.6 nM in assay [2]; 3.4 nM in [8]; 23 nM in assay [4]; 24 nM in [9]. The results for the Kb in [3], in assay [5] and in assay [6] were more than 3000 nM, 25 nM and 29 nM, respectively.
In the case of `CC1=C(C(N)=O)C(c2ccc([N+](=O)[O-])cc2)C(C(=O)NCCCN2CCC(c3ccccc3)(c3ccccc3)CC2)=C(C)N1` (stereo not given), in assay [10], the Ki is more than 10 nM.
For the compound `CNC(=O)C1=C(C)NC(C)=C(C(=O)NCCCN2CCC(c3ccccc3)(c3ccccc3)CC2)C1c1ccc([N+](=O)[O-])cc1` (stereo not given), the Ki in assay [1] was 3.1 nM; in assay [10], more than 5000 nM.
In the same order, the values of `COC(=O)C1=C(C)NC(C)=C(C(=O)NCCCN2CCC(c3ccccc3)(c3ccccc3)CC2)C1c1cccc([N+](=O)[O-])c1` (stereo not given) are 0.4 nM and 30 nM.
In the case of `CNC[C@H](O)c1ccc(O)c(O)c1` (stereo in doubt; (+)) [EPINEPHRINE], the EC50 in assay [11] and in assay [12] was 436 nM each time.
Consider `CNC[C@H](O)c1ccc(O)c(O)c1` (stereo in doubt; (-)) [EPINEPHRINE], for which the EC50 in [11] and in assay [12] was 15 nM throughout.

The record behind these values is ChEMBL document CHEMBL1128729, “Alpha- and beta-adrenoceptors: from the gene to the clinic. 2. Structure-activity relationships and therapeutic applications” (J Med Chem, 1995).
